Among the data in US20250228239A1, “MOLECULES HAVING PESTICIDAL UTILITY, AND INTERMEDIATES, COMPOSITIONS, AND PROCESSES, RELATED THERETO” (priority 2024, published 2025) are pest or weed control, YFM and YFM rating values, retold here.

Where two headings read alike, the source gives them in different places.

Type in all cases: in vivo
Test [1] concerns Green Peach Aphid (Myzus persicae, MYZUPE). Put plainly: Bioassays on Green Peach Aphid (GPA), foliar spray on cabbage seedlings. The following applies: 72 h. The method in brief: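 Percent control (Abbott-corrected versus solvent-sprayed plants) comes from live-aphid counts three days after treatment at about 25° C. Test solution at 200 ppm was sprayed to runoff onto both leaf surfaces of cabbage seedlings infested a day earlier with 20-50 aphids; four replicate pots.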

Test [2] concerns Beet Armyworm (Spodoptera exigua, LAPHEG). Nature of the test: Bioassays on Beet Armyworm (BAW), 128-well diet tray assay. The following applies: Spodoptera exigua. In short, it runs like this:
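Diet-overlay assay: 50 μg/cm^2 compound applied in 90:10 acetone-water to artificial diet, allowed to dry, then infested with 1–5 L2 larvae/well; 8 wells/compound; covered, vented; 25° C., 14:10 L:D, 5–7 d; % mortality per well, averaged.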

Test [3] has as its system Cabbage Looper (Trichoplusia ni, TRIPNI). Put plainly: Bioassays on Cabbage Looper (CL), 128-well diet tray assay. The following applies: Trichoplusia ni. In short, it runs like this:
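Second-instar larvae (1–5 per well) placed on artificial diet surface-treated with 50 μg/cm^2 test molecule applied in 90:10 acetone-water and dried. Held at 25° C., 14:10 light-dark, for five to seven days. Percent mortality scored per well and averaged over eight wells.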

For test [4], the system named is Yellow Fever Mosquito (Aedes aegypti, AEDSAE). In short, it runs like this: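 Larvae ~1 day old, in liver powder/water; compound from 4000 ppm DMSO stock diluted with water/acetone (90:10); 6 reps; lidded, RT, 3 d; mortality scored per well, rated.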
The mark [5] stands for this setting: Green Peach Aphid, rating class, read-out: GPA.
Setting [6] is: Beet Armyworm, rating class, read-out: BAW.
Setting [7] is: Cabbage Looper, rating class, read-out: CL.
Where [8] appears, read: Yellow Fever Mosquito, rating class.

As for `O=C(Nc1ccc(F)c(NC(=O)C(F)F)c1F)c1cc(NC(=O)[C@H]2[C@H](c3cc(F)cc(C(F)(F)F)c3)C2(Cl)Cl)ccc1Cl` [F1711, 2-Chloro-5-((1R,3R)-2,2-dichloro-3-(3-fluoro-5-(trifluoromethyl)phenyl)cyclopropane-1-carboxamido)-N-(3-(2,2-difluoroacetamido)-2,4-difluorophenyl)benzamide], the pest or weed control at 200 µg/mL in test [1] (setting [5]) was 80 to 100%. Moreover, the pest or weed control at 50 µg/cm2 in test [2] (setting [6]) and in test [3] (setting [7]) was 50 to 100% in each case. Further, the YFM entry in test [4] (setting [8]) was “A (80–100)”.

Consider `O=C(Nc1c(F)ccc(NC(=O)C(F)F)c1F)c1cc(NC(=O)[C@H]2[C@H](c3cc(Cl)c(Cl)c(Cl)c3)C2(Cl)Cl)ccc1Cl` [F1238, 2-Chloro-5-((1R,3R)-2,2-dichloro-3-(3,4,5-trichlorophenyl)cyclopropane-1-carboxamido)-N-(3-(2,2-difluoroacetamido)-2,6-difluorophenyl)benzamide], for which the pest or weed control at 200 µg/mL in test [1] (Table ABC: Biological Results, species GPA, read-out: GPA) lay in the range of 0 to 80%. Besides, the pest or weed control at 50 µg/cm2 lay within 50 to 100% in test [2] (Table ABC: Biological Results, species BAW, read-out: BAW) and 50 to 100% in test [3] (Table ABC: Biological Results, species CL, read-out: CL). Moreover, in test [4] (Table ABC: Biological Results, species YFM), the YFM entry is recorded as “A (80–100)”.

In the case of `CCCC(=O)Nc1c(F)ccc(NC(=O)c2cc(NC(=O)[C@H]3[C@H](c4ccc(F)c(Cl)c4)C3(Cl)Cl)ccc2Cl)c1F` [F1705, N-(3-Butyramido-2,4-difluorophenyl)-2-chloro-5-((1R,3R)-2,2-dichloro-3-(3-chloro-4-fluorophenyl)cyclopropane-1-carboxamido)benzamide], the pest or weed control at 200 µg/mL in test [1] (setting [5]) is 80 to 100%. For the same molecule, the pest or weed control at 50 µg/cm2 in test [2] (setting [6]) and in test [3] (setting [7]) was 50 to 100% in each case. Further, in test [4] (setting [8]), the YFM result is recorded as “B (More than 0 – Less than 80)”.

Take `O=C(COC(F)(F)F)Nc1c(F)ccc(NC(=O)c2cc(NC(=O)[C@H]3[C@H](c4ccc(F)c(C(F)(F)F)c4)C3(Cl)Cl)ccc2Cl)c1F` [F1742, 2-Chloro-5-((1R,3R)-2,2-dichloro-3-(4-fluoro-3-(trifluoromethyl)phenyl)cyclopropane-1-carboxamido)-N-(2,4-difluoro-3-(2-(trifluoromethoxy)acetamido)phenyl)benzamide]: in test [1] (setting [5]), the pest or weed control at 200 µg/mL was in the range of 0 to 80%. The pest or weed control at 50 µg/cm2 in test [2] (setting [6]) and in test [3] (setting [7]) was 50 to 100% throughout. In addition, in test [4] (setting [8]), the YFM entry is given as “A (80–100)”.

As to `O=C(NCCCCl)c1c(Cl)ccc(NC(=O)[C@H]2[C@H](c3ccc(F)c(Cl)c3)C2(Cl)Cl)c1Cl` (relative stereo) [F2026, trans-2,6-Dichloro-N-(3-chloropropyl)-3-(2,2-dichloro-3-(3-chloro-4-fluorophenyl)cyclopropane-1-carboxamido)benzamide], in test [1] (Green Peach Aphid, Table ABC / ABC-DP rating, read-out: GPA rating), the pest or weed control at 200 µg/mL fell in the range of 0 to 80%. Also, the pest or weed control at 50 µg/cm2 in test [2] (Beet Armyworm, Table ABC / ABC-DP rating, read-out: BAW rating) fell in the range of 50 to 100%; in test [3] (Cabbage Looper, Table ABC / ABC-DP rating, read-out: CL rating), 50 to 100%. For the same molecule, the YFM rating result in test [4] (Yellow Fever Mosquito, Table ABC / ABC-DP rating) is reported as “A (80–100)”.

With `CCCCC(=O)Nc1c(F)ccc(NC(=O)c2cc(NC(=O)[C@H]3[C@H](c4ccc(Cl)c(Cl)c4)C3(Cl)Cl)ccc2Cl)c1F` [F1474, 2-Chloro-5-((1R,3R)-2,2-dichloro-3-(3,4-dichlorophenyl)cyclopropane-1-carboxamido)-N-(2,4-difluoro-3-pentanamidophenyl)benzamide], in test [1] (setting [5]), the pest or weed control at 200 µg/mL was 0 to 80%. In addition, the pest or weed control at 50 µg/cm2 in test [2] (setting [6]) and in test [3] (setting [7]) was 50 to 100% in each case. In test [4] (setting [8]), the YFM entry is “A (80–100)”.

For the molecule `O=C1CC(C(=O)Nc2c(F)ccc(NC(=O)c3cc(NC(=O)[C@H]4[C@H](c5ccc(Cl)c(Cl)c5)C4(Cl)Cl)ccc3Cl)c2F)C1` [F1475, 2-Chloro-5-((1R,3R)-2,2-dichloro-3-(3,4-dichlorophenyl)cyclopropane-1-carboxamido)-N-(2,4-difluoro-3-(3-oxocyclobutane-1-carboxamido)phenyl)benzamide], the pest or weed control at 200 µg/mL in test [1] (setting [5]) was in the range of 0 to 80%. Moreover, the pest or weed control at 50 µg/cm2 in test [2] (setting [6]) and in test [3] (setting [7]) was 50 to 100% in each case. The YFM result in test [4] (setting [8]) is “A (80–100)”.
